Test results published in patent US8809280B2, “Therapeutic peptides” (Lytix Biopharma AS, priority 2009, dated 2014).
≈ marks a conversion by molar mass, not a printed value. Like-named read-outs stand apart in the source and are kept apart here.

How the values were obtained:
[1] = tested on: Staphylococcus aureus (ATTC 25923); assay: microbe, parasite or virus in culture; format: cell-based
Summary of the method: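 Di-TFA salts tested in duplicate at 0.5–200 μg/ml against exponential-phase bacteria at 2×10^6 cfu/ml grown in 2% peptone water. Growth judged by well turbidity, with no-peptide and gentamicin controls.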

[2] = tested on: methicillin resistant Staphylococcus aureus (ATCC 33591); assay: microbe, parasite or virus in culture; format: cell-based
Summary of the method: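 Di-TFA salts tested in duplicate at 200 down to 0.5 μg/ml against exponentially grown bacteria at 2×10^6 cfu/ml. Growth judged by well turbidity, with no-peptide and gentamicin controls.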

[3] = tested on: methicillin resistant Staphylococcus epidermidis (ATCC 27626); assay: microbe, parasite or virus in culture; format: cell-based
Summary of the method: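 Exponentially grown bacteria (2% peptone water) at 2×10^6 cfu/ml exposed in duplicate to di-TFA salts at 0.5–200 μg/ml. Growth or no growth judged by well turbidity; no-peptide and gentamicin controls included.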

[4] = tested on: Escherichia coli (ATTC 25922); assay: microbe, parasite or virus in culture; format: cell-based
Summary of the method: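 Broth dilution in 2% Bacto Peptone water, inoculum 2×10^6 cfu/ml of exponential-phase bacteria; compounds (di-TFA salts) tested in duplicate at 200 down to 0.5 μg/ml. Growth judged by well turbidity, with no-peptide negative and gentamicin positive controls.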

[5] = tested on: Pseudomonas aeruginosa (ATCC 27853); assay: microbe, parasite or virus in culture; format: cell-based; conditions: for MIC: read-out: MIC P. aeruginosa
Experimental: Each compound was tested in duplicates at 200, 100, 50, 35, 15, 10, 5, 2.5, 1, 0.5 μg/ml. All tested compounds were di-trifluoroacetic acid salts.

[6] = tested on: human red blood cells; assay: cells; format: cell-based
Summary of the method: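 Washed heparinized RBCs, diluted to 10% hematocrit then to 1% v/v final, incubated with compounds in PBS (1–1000 μg/mL) for 1 h at 37 °C with agitation. Hemoglobin release read at 405 nm against PBS (0%) and 0.1% Triton X-100 (100%); value reported is concentration giving 50% hemolysis.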

[7] = target: α-chymotrypsin (Bos taurus, UniProt P00766, DEL14-15/DEL147-148); assay: Stability against α-chymotrypsin; format: in vitro ADME; conditions: over a period of 48 hours
Experimental: The stability testing against α-chymotrypsin was conducted by dissolving the desired compounds to 1 mg/ml in water. α-Chymotrypsin was dissolved to 0.1 mg/ml in 1 mM HCl containing 2 mM CaCl2. The enzymatic digestion was performed in 100 mM TRIS HCl containing 10 mM CaCl2. Final enzyme concentration was 2 μg/ml, and final peptide concentration was 100 μg/ml. Total volume was 0.5 ml.
15 μl samples were collected at 0, 15, 30, 60, 120 and 240 min in addition to the 24 and 48 hours samples. To the samples it was added an external standard (atenolol hydrochloride) and 100 μl 10% acetic acid to terminate digestion before it was diluted to 1 ml with water.
For every test there were done a negative control without enzyme to ensure that degradation was due to enzyme activity and not other factors. Succinyl-ala-ala-pro-phe-para nitroanhiine was used as positive control. All test were run in triplicates.

[8] = tested on: A20; assay: cells; format: cell-based
Experimental: Cancer Cell Lines A20 or MethA Anticancer assays: 500 μg/ml

[9] = tested on: MRC-5; assay: Toxicity assay MRC-5; format: cell-based; conditions: Homo sapiens, MRC5, Example 2; highest concentration tested 500 μg/ml
Experimental: Cells for Toxicity Studies Used MRC-5 and human RBC MRC-5 assay: 500 μg/ml

[10] = ATTC 25923, read-out: MIC S. aureus
[11] = ATTC 25922, read-out: MIC E. coli
[12] = Staphylococcus aureus, ATCC25923, Example 4, ATCC 25923, di-trifluoroacetate salts, highest concentration tested 200 μg/ml, read-out: MIC S. aureus
[13] = Staphylococcus aureus, ATCC33591, Example 4, ATCC 33591, di-trifluoroacetate salts, highest concentration tested 200 μg/ml, read-out: MIC MTRSA
[14] = Staphylococcus epidermidis, ATCC 27626 / MRSE, Example 4, ATCC 27626, di-trifluoroacetate salts, highest concentration tested 200 μg/ml, read-out: MIC MRSE
[15] = Escherichia coli, ATCC25922, Example 4, ATCC 25922, di-trifluoroacetate salts, highest concentration tested 200 μg/ml, read-out: MIC E. coli
[16] = Pseudomonas aeruginosa, ATCC27853, Example 4, ATCC 27853, di-trifluoroacetate salts, highest concentration tested 200 μg/ml
[17] = Erythrocyte, Example 4, hemolytic activity, human red blood cells, highest concentration tested 1000 μg/ml, read-out: EC50 RBC

SMILES	MBC S. aureus ([1]; ATTC 25923) [µM]	MIC [1, 10] [µM]	MBC MRSA ([2]; ATCC 33591) [µM]	MBC MRSE ([3]; ATCC 27626) [µM]	MIC ([3]; ATCC 27626, read-out: MIC MRSE) [µM]	MBC E. coli ([4]; ATTC 25922) [µM]	MIC [4, 11] [µM]	MIC MRSA ([2]; ATCC 33591) [µM]	proteolytic stability against α-chymotrypsin [7]	Therapeutic index S. aureus ([1]; EC50 RBC divided by MIC)	MIC [1, 12] [µM]	Therapeutic index MRSA ([2]; EC50 RBC divided by MIC)	MIC [2, 13] [µM]	Therapeutic index MRSE ([3]; EC50 RBC divided by MIC)	MIC [3, 14] [µM]	Therapeutic index E. coli ([4]; EC50 RBC divided by MIC)	MIC [4, 15] [µM]	Therapeutic index P. aeruginosa ([5]; EC50 RBC divided by MIC)	MIC [5, 16] [µM]	EC50 [6, 17] [µM]	further results
CN(C)CCN1CCN(C(=O)C(CN)(Cc2ccc(C(C)(C)C)cc2)Cc2ccc(C(C)(C)C)cc2)CC1 [Compound 4d]	>307	13	>307	>307	13	>307	13	–	–	–	–	–	–	–	–	–	–	–	–	–	Therapeutic index S. aureus ([1]; ATTC 25923): 26; MIC S. aureus ([1]; Example 1, ATTC 25923, di TFA salts, highest concentration tested 200 μg/ml): — (The notation “—”denotes no detectable activity (MIC or EC50) within the concentration range tested.); Therapeutic index MRSA ([2]; ATCC 33591): 26; MIC ([2]; ATCC 33591, read-out: MIC MTRSA): 13 µM; MIC MRSA ([2]; Example 1, ATCC 33591, di TFA salts, highest concentration tested 200 μg/ml): — (The notation “—”denotes no detectable activity (MIC or EC50) within the concentration range tested.); Therapeutic index MRSE ([3]; ATCC 27626): 26; MIC MRSE ([3]; Example 1, ATCC 27626, di TFA salts, highest concentration tested 200 μg/ml): — (The notation “—”denotes no detectable activity (MIC or EC50) within the concentration range tested.); Therapeutic index E. coli ([4]; ATTC 25922): 26; MIC E. coli ([4]; Example 1, ATTC 25922, di TFA salts, highest concentration tested 200 μg/ml): — (The notation “—”denotes no detectable activity (MIC or EC50) within the concentration range tested.); Therapeutic index P. aeruginosa ([5]; ATCC 27853): 1.3; MIC ([5]; ATCC 27853): 255 µM (≈ 133 µg/mL); EC50 ([6]; red cells of human): 337 µM
Cc1ccc(CC(CN)(Cc2ccc(C)cc2)C(=O)N[C@@H](CCCNC(=N)N)C(N)=O)cc1 [Compound 4h]	147 (≈ 66.5 µg/mL)	147	110 (≈ 49.8 µg/mL)	110 (≈ 49.8 µg/mL)	74	>294	–	74 (≈ 33.5 µg/mL)	no degradation could be detected	–	–	–	–	–	–	–	–	–	–	–	–
N=C(N)NCCC[C@H](NC(=O)C(CN)(Cc1ccc(C(F)(F)F)cc1)Cc1ccc(C(F)(F)F)cc1)C(N)=O [Compound 4i]	12.7 (≈ 7.12 µg/mL)	12.7	6.3 (≈ 3.53 µg/mL)	12.7 (≈ 7.12 µg/mL)	12.7	>254	254	3.2 (≈ 1.79 µg/mL)	no degradation could be detected	–	–	–	–	–	–	–	–	–	–	–	–
CC(C)(C)c1ccc(CC(CN)(Cc2ccc(C(C)(C)C)cc2)C(=O)N[C@@H](CCCNC(=N)N)C(N)=O)cc1 [Compound 4k]	6.5 (≈ 3.49 µg/mL)	6.5	6.5 (≈ 3.49 µg/mL)	5.2 (≈ 2.79 µg/mL)	5.0	46 (≈ 24.7 µg/mL)	46	3.3 (≈ 1.77 µg/mL)	no degradation could be detected	–	–	–	–	–	–	–	–	–	–	–	–
COc1cc(CC(CN)(Cc2cc(OC)cc(OC)c2)C(=O)N[C@@H](CCCNC(=N)N)C(N)=O)cc(OC)c1 [Compound 4m]	>259	259	259 (≈ 141 µg/mL)	129 (≈ 70.3 µg/mL)	129	>259	–	259 (≈ 141 µg/mL)	no degradation could be detected	–	–	–	–	–	–	–	–	–	–	–	–
CC(C)(C)c1ccc(CC(CN)(Cc2ccc(C(C)(C)C)cc2)C(=O)NCCN)cc1 [Compound 11, 3-amino-N-(2-aminoethyl)-2,2-bis(4-tert-butylbenzyl)propanamide]	–	–	–	–	–	–	–	–	–	–	–	–	–	–	–	–	–	–	–	–	MIC ([1]; Staphylococcus aureus, Example 2, values separated by / are repeat tests, read-out: Antimicrobial potency (MIC) S. aureus): 2.5 µg/mL; MIC ([2]; Staphylococcus aureus, ATCC 33591 / MRSA, Example 2, values separated by / are repeat tests, read-out: Antimicrobial potency (MIC) MRSA): 2.5 µg/mL; MIC ([3]; Staphylococcus epidermidis, ATCC 27626 / MRSE, Example 2, values separated by / are repeat tests, read-out: Antimicrobial potency (MIC) MRSE): 2.5 µg/mL; MIC ([4]; Escherichia coli, Example 2, values separated by / are repeat tests, read-out: Antimicrobial potency (MIC) E. coli): 5 µg/mL; EC50 ([6]; Homo sapiens, Erythrocyte, Example 2, highest concentration tested 1000 μg/ml, * low solubility in the test media, read-out: Toxicity RBC (EC50)): 12 µg/mL; Anti-Cancer Selectivity MRC-5/A20 ([8]; ratio of MRC-5 to A20 values): 3.6; Anti-Cancer Selectivity RBC/A20 ([8]; ratio of RBC EC50 to A20 IC50): 10.9; IC50 [9]: 4 µg/mL (≈ 9.44 µM)
CN1CCN(C(=O)C(CN)(Cc2ccc(C(C)(C)C)cc2)Cc2ccc(C(C)(C)C)cc2)CC1 [Entry 5d]	–	–	–	–	–	–	–	–	–	23	15	23	15	48	7.2	23	15	1.2	289	348	–
CN(C)CCNC(=O)C(CN)(Cc1ccc(C(C)(C)C)cc1)Cc1ccc(C(C)(C)C)cc1 [Entry 6d]	–	–	–	–	–	–	–	–	–	37	7.4	37	7.4	74	3.7	37	7.4	3.7	74	274	–
CC(C)(C)c1ccc(CC(CN)(Cc2ccc(C(C)(C)C)cc2)C(=O)NCCN)cc1 [Entry 7d]	–	–	–	–	–	–	–	–	–	4.7	3.8	4.7	3.8	4.7	3.8	2.3	7.7	0.8	23	18	–
